{"source": "patent US8927523B2", "about": "“Compound sea cucumber preparation and manufacturing method thereof” (Dalian Haiyantang Biology Co., Ltd., priority 2010, dated 2015)", "key": {"[1]": {"system": "insulin resistance HepG2 cells", "experiment": "Glucose consumption of insulin resistance HepG2 cells (glucose oxidase method)", "assay_type": "cell-based, Human", "conditions": "30 mg/L", "method": "(§1) Human liver cancer cell line HepG2 provided by Dalian Medical University is vaccinated in a DMEM culture medium which contains 10% volume fraction of fetal calf serum (supplementing penicillin, streptomycin […] respectively), and the culture medium is placed in a 5% CO2 cell culture box at 37° C. […] Incubate for 8 h in culture box in the conditions of 37° C. and 5% CO2 to form monolayer anchorage-dependent cells. Wash the cells twice with DMEM culture solution without fetal calf serum, then incubate the cells for 16 h with 5×10^−7 mol·L^−1 insulin culture solution in culture box in the conditions of 37° C. and 5% CO2. The HepG2 cells incubated for 16 h with insulin culture solution are model cells. Count the prepared cell suspension, adjust the cell concentration to 5×10^4·ml^−1, vaccinate on 96-well cell culture plate, 8-well in duplicate for each group, total amount of 200 uL for each well. The experiment is divided into 5 groups: normal control group, insulin resistance model group, compound sea cucumber preparation high and low dosage groups and metformin positive control group. Except the normal control group, each other group is incubated for 16 h after adding insulin with ultimate concentration of 5×10^−7 mol·L^−1 into culture solution so as to form insulin resistance model. […]"}, "[2]": {"system": "experimental diabetic mice caused by alloxan", "experiment": "Glucose tolerance of experimental diabetic mice caused by alloxan", "assay_type": "in vivo", "conditions": "200 mg/kg b.i.d.", "method": "Building of mice high glucose model, animal grouping and treating ways are the same as above description.\n[formula] wherein, C is the plasma glucose value (mmol/L), t is the time after glucose load (h), i is the glucose value number; C0, C1, C2, C3, C4 are respectively plasma glucose value of before glucose load (0 min) and 30 min, 60 min, 120 min and 240 min after glucose load."}, "[3]": {"system": "experimental diabetic mice caused by alloxan", "experiment": "Fasting plasma glucose of experimental diabetic mice caused by alloxan", "assay_type": "in vivo", "conditions": "200 mg/kg b.i.d. irrigating stomachs", "method": "Take male, 18˜22 g Kunming variety mice, randomly take 10 mice from them as normal control group. Other mice are injected with alloxan 50 mg/kg after fasting (water is allowed) for 16 h, determine the fasting plasma glucose (FPG) fasting for 5 h after the mice are stable for 15 days, mice with FPG>10 mmol/L are high plasma glucose model mice.\n10 mice for normal control group. Take 40 high plasma glucose mice, randomly divide into high plasma glucose model group, compound sea cucumber preparation high dosage (0.5 g/kg) group, compound sea cucumber preparation low dosage (0.25 g/kg) group and positive drug metformin 200 mg/kg group.\nMice of the compound sea cucumber preparation high dosage group and the compound sea cucumber preparation low dosage group are respectively treated with 0.025 g/ml and 0.0125 g/ml suspension of compound sea cucumber preparation and normal saline 0.2 mL/10 gBW by irrigating stomachs, mice of the metformin 200 mg/kg group are treated with […] metformin normal saline solution 0.2 mL/10 gBW by irrigating stomachs, while mice of the normal control group and high plasma glucose model group are treated with equal volume of normal saline by irrigating stomachs. Mice of each group are treated twice each day (b.i.d) continuously for 4 weeks."}, "[4]": {"system": "insulin resistance HepG2 cells", "experiment": "Cell proliferation of insulin resistance HepG2 cells with MTT method", "assay_type": "cell-based, Human", "conditions": "30 mg/L", "quoted_text": "Human liver cancer cell line HepG2 provided by Dalian Medical University is vaccinated in a DMEM culture medium which contains 10% volume fraction of fetal calf serum (supplementing penicillin, streptomycin 100 U·L^−1 respectively), and the culture medium is placed in a 5% CO2 cell culture box at 37° C."}, "[5]": {"system": "insulin resistance HepG2 cells", "experiment": "Glycerin consumption of insulin resistance HepG2 cells (GPO-POD enzyme method)", "assay_type": "cell-based, Human", "conditions": "30 mg/L", "method": "as §1"}, "[6]": {"conditions": "24 h, compared with model group"}, "[7]": {"conditions": "28th day, 2 g/kg glucose by abdomen injection"}, "[8]": {"conditions": "vs high plasma glucose model group"}}}
{"smiles": "CN(C)C(=N)N=C(N)N", "note": "[Metformin, metformin]", "values": [{"measurement": "Glucose consumption increase %", "setting": "[1]; [6]", "result": 115.10, "unit": "%"}, {"measurement": "Glucose consumption", "setting": "[1]; 24 h after treating", "result": "2.83 ± 0.14", "unit": "mmol/L"}, {"measurement": "Area under the glucose load curve (ADC, mmol · h/L)", "setting": "[2]; 28th day, 0-240 min, trapezoid area method", "result": "106.05 ± 12.0", "unit": "mmol·h/L"}, {"measurement": "Plasma Glucose after glucose load 30 min", "setting": "[2]; [7]", "result": "31.68 ± 2.78", "unit": "mmol/L"}, {"measurement": "Plasma Glucose after glucose load 60 min", "setting": "[2]; [7]", "result": "31.19 ± 3.42", "unit": "mmol/L"}, {"measurement": "Plasma Glucose after glucose load 120 min", "setting": "[2]; [7]", "result": "27.43 ± 4.37", "unit": "mmol/L"}, {"measurement": "Plasma Glucose after glucose load 240 min", "setting": "[2]; [7]", "result": "20.49 ± 2.58", "unit": "mmol/L"}, {"measurement": "AUC reduce %", "setting": "[2]; 28th day, vs high plasma glucose model group", "result": 18.2, "unit": "%"}, {"measurement": "Fasting Plasma Glucose (FPG, mmol/L)", "setting": "[2]; 28th treating day, before glucose load", "result": "20.72 ± 3.03", "unit": "mmol/L"}, {"measurement": "Fasting Plasma Glucose (FPG) 7 days after treating", "setting": "[3]; n=10", "result": "18.80 ± 2.77", "unit": "mmol/L"}, {"measurement": "Fasting Plasma Glucose (FPG) 14 days after treating", "setting": "[3]; n=10", "result": "24.59 ± 4.17", "unit": "mmol/L"}, {"measurement": "Fasting Plasma Glucose (FPG) 21 days after treating", "setting": "[3]; n=10", "result": "21.18 ± 3.12", "unit": "mmol/L"}, {"measurement": "Fasting Plasma Glucose (FPG) 28 days after treating", "setting": "[3]; n=10", "result": "20.72 ± 3.03", "unit": "mmol/L"}, {"measurement": "Weight 28 days after treating", "setting": "[3]; n=10", "result": "31.76 ± 1.74", "unit": "g"}, {"measurement": "FPG Reduce % 7 days after treating", "setting": "[3]; [8]", "result": 21.7, "unit": "%"}, {"measurement": "FPG Reduce % 14 days after treating", "setting": "[3]; [8]", "result": 17.1, "unit": "%"}, {"measurement": "FPG Reduce % 21 days after treating", "setting": "[3]; [8]", "result": 29.5, "unit": "%"}, {"measurement": "FPG Reduce % 28 days after treating", "setting": "[3]; [8]", "result": 31.3, "unit": "%"}, {"measurement": "Cell increase %", "setting": "[4]", "result": 0.28, "unit": "%"}, {"measurement": "Cell survival %", "setting": "[4]", "result": "100.28 ± 1.93Δ %"}, {"measurement": "Glycerin consumption increase %", "setting": "[5]; [6]", "result": 165.97, "unit": "%"}, {"measurement": "Glycerin consumption", "setting": "[5]; 24 h after treating", "result": "0.39 ± 0.02", "unit": "mmol/L"}]}
